Results taken from patent publication US11174243B2, “Succinate forms and compositions of Bruton's tyrosine kinase inhibitors” (Sunesis Pharmaceuticals, Inc., priority 2016, dated 2021).
Values belong to the molecule of their own block, whether it stands above or below them.

Columns and labels:
TXK = target: T1, TXK (Homo sapiens, UniProt P42681); test: Kinase selectivity, TXK (Kd)
T1 sequence (P42681 1-527): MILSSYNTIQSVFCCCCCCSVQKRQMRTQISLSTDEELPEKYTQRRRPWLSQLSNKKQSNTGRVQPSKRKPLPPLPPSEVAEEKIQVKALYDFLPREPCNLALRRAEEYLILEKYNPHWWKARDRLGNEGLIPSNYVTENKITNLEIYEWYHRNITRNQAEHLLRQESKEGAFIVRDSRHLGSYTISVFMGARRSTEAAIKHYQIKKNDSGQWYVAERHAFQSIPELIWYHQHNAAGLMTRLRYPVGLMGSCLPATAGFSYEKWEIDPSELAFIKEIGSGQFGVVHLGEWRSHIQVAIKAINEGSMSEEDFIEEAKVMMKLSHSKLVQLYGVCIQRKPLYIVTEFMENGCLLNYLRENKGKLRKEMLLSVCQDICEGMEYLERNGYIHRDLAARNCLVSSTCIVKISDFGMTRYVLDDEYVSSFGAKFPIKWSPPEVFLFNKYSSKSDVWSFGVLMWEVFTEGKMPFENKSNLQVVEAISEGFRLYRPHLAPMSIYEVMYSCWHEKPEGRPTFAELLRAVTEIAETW

BTK = target: T2, BTK (Homo sapiens, UniProt Q06187); test: Phase 1a single-dose study in humans: BTK inhibition (pBTK) in whole blood; format: in vivo
T2 construct: from tissue; host or cells: human whole blood
Description: The primary endpoint of safety was assessed by monitoring adverse events (AEs), laboratory abnormalities, and cardiac findings (ECG). Secondary endpoints included evaluation of the PK parameters of area under the plasma concentration-time curve (AUC), maximum plasma concentration (Cmax), time of maximum concentration (Tmax), apparent volume of distribution (Vd/F), terminal elimination half-life (t1/2), terminal elimination rate constant (λz), and apparent clearance (Cl/F) as well as the PD parameter of BTK inhibition in whole blood. BTK inhibition was calculated based on phosphorylated BTK (pBTK) and total BTK (totBTK). All postdose blood samples and one predose sample were lysed in the presence of protease and phosphatase inhibitors (PPi); a second predose sample was lysed without PPi to estimate maximum reduction in pBTK attainable. The ratio of predose pBTK/totBTK without PPi was subtracted from each pBTK/totBTK with PPi, and % pBTK vs predose was calculated: […]

CYP3A4 = target: T3, CYP3A4 (Homo sapiens, UniProt P08684); test: Phase 1a study Stage 3: drug-drug interaction with itraconazole (effect of CYP3A4 inhibition); format: in vivo; conditions: for Cmax / AUC(0-t) / AUC(0-inf) / Tmax: plasma, oral; for Cmax / AUC(0-t) / AUC(0-inf): arithmetic mean (CV %); for Tmax: median (min, max)
T3 construct: from tissue; host or cells: human subjects in vivo
Description: Stage 3 evaluated 12 subjects from Cohort 6 who had already received Compound 2 in Stage 2 of the study. Compound 2 at a dose of 25 mg was administered once in the fasted state on Day 1 and subjects were followed for safety, PK and PD evaluations. On Day 4, subjects then received itraconazole (a potent CYP3A4 inhibitor) that was administered at a dose of 200 mg twice daily on Days 4 through 9 in the fed state (except at the morning dose on Day 7). In the morning of Day 7, subjects received itraconazole at a dose of 200 mg followed shortly by administration of Compound 2 at a dose of 25 mg (with both drugs given in the fasted state). Subjects were then followed for safety, PK and PD evaluations on Days 7, 8, 9, and 10. PK results observed following administration of Compound 2 alone on Day 1 were compared with those observed in these same subjects after administration of Compound 2 with itraconazole on Day 7.
The effect of the strong CYP3A4 inhibitor, itraconazole, on the pharmacokinetics of an oral dose of 25 mg Compound 2 was evaluated in 12 subjects (Table 7a). […].

ITK = target: T4, ITK (Homo sapiens, UniProt Q08881); test: In vitro kinase assay, ITK
T4 sequence (Q08881 1-620): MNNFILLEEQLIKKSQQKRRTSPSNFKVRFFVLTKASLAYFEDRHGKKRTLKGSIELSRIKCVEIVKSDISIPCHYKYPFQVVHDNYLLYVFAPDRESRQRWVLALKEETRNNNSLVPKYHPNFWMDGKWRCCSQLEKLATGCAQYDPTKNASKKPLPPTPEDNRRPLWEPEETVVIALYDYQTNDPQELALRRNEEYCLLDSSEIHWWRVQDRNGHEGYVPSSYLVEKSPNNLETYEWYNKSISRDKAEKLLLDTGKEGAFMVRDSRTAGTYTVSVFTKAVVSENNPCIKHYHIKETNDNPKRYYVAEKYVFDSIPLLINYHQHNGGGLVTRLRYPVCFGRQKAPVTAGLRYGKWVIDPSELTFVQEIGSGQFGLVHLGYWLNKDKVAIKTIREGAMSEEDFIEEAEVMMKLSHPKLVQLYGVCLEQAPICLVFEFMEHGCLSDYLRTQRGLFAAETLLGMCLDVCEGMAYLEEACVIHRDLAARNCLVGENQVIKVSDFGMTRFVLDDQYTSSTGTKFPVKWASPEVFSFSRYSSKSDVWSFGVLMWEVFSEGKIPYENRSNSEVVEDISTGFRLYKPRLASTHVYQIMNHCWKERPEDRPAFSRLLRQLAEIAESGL

Single-dose PK in dog = format: in vivo, male beagle dogs; conditions: beagle, plasma
Description: A series of single-dose PK studies were conducted in rat, dog, and monkey to investigate the plasma PK of Compound 2 following single oral and single intravenous (IV) administration of Compound 2.
A study was conducted to assess the PK of Compound 2 formulated as a suspension or as a solid in capsule. […] Three different dogs were used for each dose level. […] Inter-animal variability in Compound 2 free base plasma systemic exposure was observed after IV and oral administration irrespective of formulation.

[1] = human, Compound 2 25 mg fasted + itraconazole
[2] = human, Compound 2 25 mg fasted, N = 12
[3] = 1 mg/kg, IV, dose 1, 70% PEG400/H2O, free base measured
[4] = male, 5 mg/kg, PO, dose not given, 0.1% CMC/0.2% Tween, free base measured

T3 sequence (P08684 whole entry): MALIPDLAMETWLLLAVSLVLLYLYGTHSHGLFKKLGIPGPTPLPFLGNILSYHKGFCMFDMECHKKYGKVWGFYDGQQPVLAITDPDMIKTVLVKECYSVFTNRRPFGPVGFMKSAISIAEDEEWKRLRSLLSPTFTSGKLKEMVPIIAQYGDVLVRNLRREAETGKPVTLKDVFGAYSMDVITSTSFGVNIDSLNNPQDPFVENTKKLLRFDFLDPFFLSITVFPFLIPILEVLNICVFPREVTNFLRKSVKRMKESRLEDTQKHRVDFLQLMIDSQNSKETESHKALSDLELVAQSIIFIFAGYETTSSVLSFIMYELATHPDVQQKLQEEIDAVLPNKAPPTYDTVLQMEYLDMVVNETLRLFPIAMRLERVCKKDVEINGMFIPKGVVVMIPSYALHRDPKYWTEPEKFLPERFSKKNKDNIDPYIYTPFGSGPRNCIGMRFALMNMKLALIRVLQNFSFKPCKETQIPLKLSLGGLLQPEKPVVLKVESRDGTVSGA
T2 sequence (Q06187 whole entry): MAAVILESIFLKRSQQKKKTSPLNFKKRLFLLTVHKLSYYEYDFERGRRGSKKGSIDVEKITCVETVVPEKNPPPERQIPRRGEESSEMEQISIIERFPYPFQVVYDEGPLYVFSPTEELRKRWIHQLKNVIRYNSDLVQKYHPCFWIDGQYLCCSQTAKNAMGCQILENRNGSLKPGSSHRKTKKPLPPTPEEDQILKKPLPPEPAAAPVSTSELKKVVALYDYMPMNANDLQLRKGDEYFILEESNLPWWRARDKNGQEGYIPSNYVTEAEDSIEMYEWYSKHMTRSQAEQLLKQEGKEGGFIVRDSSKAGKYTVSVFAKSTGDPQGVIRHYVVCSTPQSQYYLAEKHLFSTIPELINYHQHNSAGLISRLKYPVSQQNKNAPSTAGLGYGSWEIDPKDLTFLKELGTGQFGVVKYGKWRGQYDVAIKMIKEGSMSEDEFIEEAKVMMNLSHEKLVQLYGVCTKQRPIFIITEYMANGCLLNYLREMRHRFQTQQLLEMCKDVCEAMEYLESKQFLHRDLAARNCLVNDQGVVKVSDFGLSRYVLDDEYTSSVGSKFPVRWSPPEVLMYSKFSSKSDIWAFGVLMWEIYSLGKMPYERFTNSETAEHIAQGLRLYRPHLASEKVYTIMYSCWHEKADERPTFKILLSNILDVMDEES

- Kd (TXK): ≥ 200 nM
- % BTK inhibition (BTK; Compound 1 plasma concentrations lower or close to 100 ng/mL): ≤ 75%
- inhibition of pBTK (BTK; Compound 1 plasma concentrations ≥200 ng/mL): ≥ 85%
- inhibition of pBTK (BTK; all dose levels, rapid, profound and prolonged, FIG. 13): ~100%
- inhibition (pBTK) (BTK; plasma concentrations above 1000 ng/mL, most of the subjects, largely around 100%): > 85%
- increase of plasma exposure (Cmax) with itraconazole (CYP3A4; 25 mg Compound 2 + itraconazole vs alone): about 2 fold
- CYP3A4 substrate classification (CYP3A4; ≥5-fold increase in exposure in the presence of CYP enzyme inhibition): sensitive substrate for CYP3A4
- IC50 (ITK): 24 nM
SMILES: NC(=O)[C@H]1CCN(c2ncnc(N)c2F)C[C@@H]1N1CCC[C@@H](Nc2cc(Cl)cc(C(F)(F)F)c2)C1=O [Compound 1, (3R,3′R,4′S)-1′-(6-amino-5-fluoropyrimidin-4-yl)-3-((3-chloro-5-(trifluoromethyl)phenyl)amino)-2-oxo-[1,3′-bipiperidine]-4′-carboxamide]

- CL/F (CYP3A4; human, in vivo, 25 mg): 6.34 (41.6) L/hr
- Vd/F (CYP3A4; human, in vivo, 25 mg): 57.5 L
- half-life (CYP3A4; human, in vivo, 25 mg): 6.9 h
- Cmax (CYP3A4; human, Compound 2 25 mg fasted + itraconazole, N = 12): 1680 ng/mL
- AUC(0-t) (CYP3A4; [1]): 28000 ng·h/mL
- AUC(0-inf) (CYP3A4; human, Compound 2 25 mg fasted + itraconazole, N = 11): 32200 ng·h/mL
- Tmax (CYP3A4; [1]): 1.5 h
- Cmax (CYP3A4; [2]): 873 ng/mL
- Tmax (CYP3A4; [2]): 1 h
- AUC(0-inf) (CYP3A4; human, Compound 2 25 mg fasted): 4620 ng·h/mL
- AUC(0-t) (CYP3A4; human, Compound 2 25 mg fasted): 4420 ng·h/mL
- AUC(0-inf) (Single-dose PK in dog; [3]): 1080 ng·h/mL
- C0 (Single-dose PK in dog; [3]): 1920 ng/mL
- half-life (Single-dose PK in dog; [3]): 0.8 h
- AUC(0-inf) (Single-dose PK in dog; [4]): 3520 ng·h/mL
- Cmax (Single-dose PK in dog; [4]): 2970 ng/mL
- Tmax (Single-dose PK in dog; [4]): 0.8 h
- bioavailability (Single-dose PK in dog; male, 5 mg/kg, PO, dose not given, 0.1% CMC/0.2% Tween, read-out: % F (oral bioavailability)): 65%
SMILES: NC(=O)[C@H]1CCN(c2ncnc(N)c2F)C[C@@H]1N1CCC[C@@H](Nc2cc(Cl)cc(C(F)(F)F)c2)C1=O [Compound 2]
